Reference: ChEMBL document CHEMBL1201862, “PubChem BioAssay data set” (2004)
Calls of active or inactive are those of the source.

How the values were obtained:
[1] = molecular target: T1, SUMO-activating enzyme (Homo sapiens, UniProt Q9UBT2); assay: blockers of UBC9-mediated SUMO conjugation – biochemical, AlphaScreen, SUMOylation inhibitor project, confirmation (AID 2018); format: functional
[2] = molecular target: T1, SUMO-activating enzyme; assay: blockers of SAE1/SAE2–UBC9 SUMO transfer – biochemical, HTRF, uHTS, primary screen (AID 2006); format: protein-complex assay
[3] = protection from phage-mediated lysis, alamar blue read-out – E. coli UTI89, K1F phage, bacterial capsule biogenesis inhibitors (AID 488966); format: functional
[4] = molecular target: Hexokinase (Trypanosoma brucei, UniProt Q38C41); assay: Confirmation assay for inhibitors of Trypanosoma brucei hexokinase 1-Analogue-first series. [Related pubchem assays (depositor defined):AID1430, AID1632, AID2516, AID2560, AID2579, AID2600, AID449725, AID492951]; format: functional
Sequence of Hexokinase (Q38C41 whole entry): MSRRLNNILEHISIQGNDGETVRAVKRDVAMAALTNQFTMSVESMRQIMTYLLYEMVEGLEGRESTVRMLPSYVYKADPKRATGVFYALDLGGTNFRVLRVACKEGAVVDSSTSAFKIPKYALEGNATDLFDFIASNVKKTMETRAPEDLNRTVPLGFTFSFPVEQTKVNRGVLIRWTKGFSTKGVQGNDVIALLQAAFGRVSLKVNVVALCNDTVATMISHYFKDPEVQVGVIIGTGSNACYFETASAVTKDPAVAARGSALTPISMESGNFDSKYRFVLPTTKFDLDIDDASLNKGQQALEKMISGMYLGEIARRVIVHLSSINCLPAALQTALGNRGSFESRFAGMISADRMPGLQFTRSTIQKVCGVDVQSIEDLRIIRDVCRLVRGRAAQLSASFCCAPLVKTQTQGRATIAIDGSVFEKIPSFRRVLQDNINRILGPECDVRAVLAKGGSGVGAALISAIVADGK

[5] = molecular target: T2, Tyrosine-protein phosphatase non-receptor type 7 (Homo sapiens, UniProt P35236); assay: redox-active compounds inhibiting HePTP phosphatase – biochemical, fluorescence, mechanism study (AID 2068); format: functional
T2 sequence (P35236 whole entry): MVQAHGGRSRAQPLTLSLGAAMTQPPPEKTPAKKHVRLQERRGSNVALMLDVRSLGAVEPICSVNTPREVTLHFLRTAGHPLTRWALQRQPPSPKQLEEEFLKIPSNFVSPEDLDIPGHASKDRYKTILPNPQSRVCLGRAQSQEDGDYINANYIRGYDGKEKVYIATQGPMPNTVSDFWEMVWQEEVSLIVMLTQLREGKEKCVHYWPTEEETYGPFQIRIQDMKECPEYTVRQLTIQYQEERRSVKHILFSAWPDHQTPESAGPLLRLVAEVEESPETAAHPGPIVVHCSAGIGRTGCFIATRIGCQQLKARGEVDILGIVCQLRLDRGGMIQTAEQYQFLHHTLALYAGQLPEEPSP

[6] = molecular target: T3, RNA-binding protein pos-1 (Caenorhabditis elegans, UniProt G5EF15); assay: disruptors of C. elegans POS-1 RNA interaction – biochemical, fluorescence polarization, dose response (AID 1964);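 further: purified POS-1 fused to maltose binding protein made in E. coli; potency of compounds blocking POS-1 binding to fluorescent RNA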
T3 sequence (G5EF15 whole entry): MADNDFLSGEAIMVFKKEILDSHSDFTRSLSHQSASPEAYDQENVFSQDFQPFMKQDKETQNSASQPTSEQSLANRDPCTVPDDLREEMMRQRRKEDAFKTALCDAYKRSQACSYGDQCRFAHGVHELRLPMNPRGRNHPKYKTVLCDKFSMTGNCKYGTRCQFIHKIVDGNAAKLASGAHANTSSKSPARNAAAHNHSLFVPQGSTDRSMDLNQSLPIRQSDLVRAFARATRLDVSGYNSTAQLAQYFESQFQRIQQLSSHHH

[7] = molecular target: T4, Zinc finger protein mex-5 (Caenorhabditis elegans, UniProt Q9XUB2); assay: potency of MEX-5 RNA-binding blockers – biochemical, C. elegans, fluorescence polarization, dose response (AID 1960)
T4 sequence (Q9XUB2 whole entry): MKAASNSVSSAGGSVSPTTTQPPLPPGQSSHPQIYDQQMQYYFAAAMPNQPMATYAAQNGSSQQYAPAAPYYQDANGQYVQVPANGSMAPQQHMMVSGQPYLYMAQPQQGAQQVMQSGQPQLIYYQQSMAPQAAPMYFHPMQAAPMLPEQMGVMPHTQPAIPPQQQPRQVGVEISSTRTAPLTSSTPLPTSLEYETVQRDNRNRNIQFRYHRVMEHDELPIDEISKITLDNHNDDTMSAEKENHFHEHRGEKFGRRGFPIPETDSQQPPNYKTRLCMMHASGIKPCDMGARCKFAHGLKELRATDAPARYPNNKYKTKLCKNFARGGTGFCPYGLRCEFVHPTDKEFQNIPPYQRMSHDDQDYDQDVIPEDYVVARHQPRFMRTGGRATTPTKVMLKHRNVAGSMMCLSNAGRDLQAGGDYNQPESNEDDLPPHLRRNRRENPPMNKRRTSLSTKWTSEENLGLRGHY

[8] = molecular target: Induced myeloid leukemia cell differentiation protein Mcl-1 (Homo sapiens, UniProt Q07820); format: functional
Sequence of Induced myeloid leukemia cell differentiation protein Mcl-1 (Q07820 whole entry): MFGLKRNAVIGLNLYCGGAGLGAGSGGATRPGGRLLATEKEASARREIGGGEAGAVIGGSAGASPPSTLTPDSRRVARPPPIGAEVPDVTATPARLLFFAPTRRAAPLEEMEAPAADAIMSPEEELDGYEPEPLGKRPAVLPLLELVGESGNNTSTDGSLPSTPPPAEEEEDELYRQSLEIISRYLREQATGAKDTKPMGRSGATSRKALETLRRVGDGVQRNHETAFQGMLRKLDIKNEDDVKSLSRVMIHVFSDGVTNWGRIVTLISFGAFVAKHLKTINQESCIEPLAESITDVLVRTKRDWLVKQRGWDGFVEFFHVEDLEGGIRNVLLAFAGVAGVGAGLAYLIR

[9] = molecular target: Troponin, cardiac muscle (Homo sapiens, UniProt P19429+P45379+P63316); assay: compounds desensitizing RTF to calcium – biochemical, fluorescence, cardiac regulated thin filaments, triplicate IC50, dose response (AID 504742); format: protein-complex assay
[10] = molecular target: Genome polyprotein (dengue virus type 2, UniProt P29990); assay: flavivirus cap methylation enzyme inhibition – biochemical, confirmation dose response, primary screen (AID 588689); format: functional
Sequence of Genome polyprotein (P29990 2492-3391 limits assumed): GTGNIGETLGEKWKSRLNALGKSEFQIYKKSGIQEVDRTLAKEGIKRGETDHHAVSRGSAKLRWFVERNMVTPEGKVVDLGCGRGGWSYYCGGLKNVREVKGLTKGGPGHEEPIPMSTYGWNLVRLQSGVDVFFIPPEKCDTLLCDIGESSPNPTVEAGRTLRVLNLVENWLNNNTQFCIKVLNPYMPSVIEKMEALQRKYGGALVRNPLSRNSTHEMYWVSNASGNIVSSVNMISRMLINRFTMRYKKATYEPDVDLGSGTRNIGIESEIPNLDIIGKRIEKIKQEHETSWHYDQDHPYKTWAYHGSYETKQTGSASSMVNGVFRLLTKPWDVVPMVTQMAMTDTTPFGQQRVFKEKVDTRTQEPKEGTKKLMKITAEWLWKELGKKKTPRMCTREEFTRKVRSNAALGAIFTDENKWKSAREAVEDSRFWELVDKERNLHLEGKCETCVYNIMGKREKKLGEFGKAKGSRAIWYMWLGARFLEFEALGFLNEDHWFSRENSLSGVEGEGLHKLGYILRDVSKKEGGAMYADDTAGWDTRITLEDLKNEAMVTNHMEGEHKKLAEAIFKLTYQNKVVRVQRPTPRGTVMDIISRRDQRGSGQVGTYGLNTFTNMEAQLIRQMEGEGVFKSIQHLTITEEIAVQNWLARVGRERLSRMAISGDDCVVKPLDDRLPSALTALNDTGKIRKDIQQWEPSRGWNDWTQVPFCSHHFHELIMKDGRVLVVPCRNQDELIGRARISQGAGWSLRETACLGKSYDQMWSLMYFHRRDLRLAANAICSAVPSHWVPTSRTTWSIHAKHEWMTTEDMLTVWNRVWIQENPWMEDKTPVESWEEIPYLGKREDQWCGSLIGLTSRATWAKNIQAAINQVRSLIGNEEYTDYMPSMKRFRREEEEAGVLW

[11] = molecular target: T5, Polyadenylate-binding protein 1 (Homo sapiens, UniProt P11940); assay: MLLE binding blockers, Cy5 peptide tracer – biochemical, fluorescence polarization, Cy5-PAM2 peptide, secondary, miRNA deadenylation inhibitor project, dose response (AID 602260); format: functional; details: read-out: IC50_Mean
T5 sequence (P11940 whole entry, the tested form may be a part): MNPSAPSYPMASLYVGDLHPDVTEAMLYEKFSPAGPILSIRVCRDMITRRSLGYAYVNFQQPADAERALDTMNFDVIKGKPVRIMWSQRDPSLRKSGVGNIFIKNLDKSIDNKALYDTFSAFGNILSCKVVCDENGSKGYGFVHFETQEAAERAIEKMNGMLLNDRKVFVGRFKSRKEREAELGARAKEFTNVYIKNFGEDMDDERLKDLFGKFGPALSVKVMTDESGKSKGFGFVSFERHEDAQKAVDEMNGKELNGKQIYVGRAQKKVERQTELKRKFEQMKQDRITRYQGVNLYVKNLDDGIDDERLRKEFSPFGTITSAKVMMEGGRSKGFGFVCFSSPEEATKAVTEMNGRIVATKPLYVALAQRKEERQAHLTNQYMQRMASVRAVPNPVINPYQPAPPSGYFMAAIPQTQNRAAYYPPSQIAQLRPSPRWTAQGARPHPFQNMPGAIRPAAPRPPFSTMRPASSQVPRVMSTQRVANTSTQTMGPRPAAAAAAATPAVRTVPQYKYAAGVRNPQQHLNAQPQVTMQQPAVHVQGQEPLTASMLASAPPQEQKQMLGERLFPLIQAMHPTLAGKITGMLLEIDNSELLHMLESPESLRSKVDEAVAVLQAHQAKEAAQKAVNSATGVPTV

[12] = molecular target: T5, Polyadenylate-binding protein 1; assay: MLLE domain peptide-binding blockers, IC50 – biochemical, fluorescence polarization, FITC-PAM2 peptide, dose response (AID 602259); format: functional; details: read-out: IC50_Mean
[13] = molecular target: T6, Rac GTPase-activating protein 1 (Homo sapiens, UniProt Q9H0H5); assay: blockers of MgcRacGAP-driven Rac1 GTP hydrolysis – biochemical, ADP Hunter fluorescence, primary and confirmatory, confirmation (AID 624330); format: functional
T6 sequence (Q9H0H5 whole entry): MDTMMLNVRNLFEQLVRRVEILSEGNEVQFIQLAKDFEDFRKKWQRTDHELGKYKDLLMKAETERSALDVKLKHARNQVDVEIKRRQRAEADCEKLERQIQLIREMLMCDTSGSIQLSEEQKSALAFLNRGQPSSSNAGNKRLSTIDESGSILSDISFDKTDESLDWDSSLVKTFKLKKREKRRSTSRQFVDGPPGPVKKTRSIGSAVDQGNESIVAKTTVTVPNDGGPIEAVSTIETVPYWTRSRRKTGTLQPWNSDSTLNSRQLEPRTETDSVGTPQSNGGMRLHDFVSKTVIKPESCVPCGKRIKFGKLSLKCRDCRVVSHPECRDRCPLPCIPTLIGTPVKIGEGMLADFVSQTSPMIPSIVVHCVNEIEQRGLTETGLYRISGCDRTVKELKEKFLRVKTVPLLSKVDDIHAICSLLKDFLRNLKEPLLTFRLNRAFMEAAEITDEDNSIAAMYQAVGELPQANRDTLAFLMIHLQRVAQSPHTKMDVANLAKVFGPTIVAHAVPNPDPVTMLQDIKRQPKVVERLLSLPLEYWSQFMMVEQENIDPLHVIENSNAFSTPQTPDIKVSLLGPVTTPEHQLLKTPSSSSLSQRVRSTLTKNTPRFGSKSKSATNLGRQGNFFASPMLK

[14] = molecular target: Histone-lysine N-methyltransferase NSD2 (Homo sapiens, UniProt O96028); format: biochemical
Sequence of Histone-lysine N-methyltransferase NSD2 (O96028 whole entry): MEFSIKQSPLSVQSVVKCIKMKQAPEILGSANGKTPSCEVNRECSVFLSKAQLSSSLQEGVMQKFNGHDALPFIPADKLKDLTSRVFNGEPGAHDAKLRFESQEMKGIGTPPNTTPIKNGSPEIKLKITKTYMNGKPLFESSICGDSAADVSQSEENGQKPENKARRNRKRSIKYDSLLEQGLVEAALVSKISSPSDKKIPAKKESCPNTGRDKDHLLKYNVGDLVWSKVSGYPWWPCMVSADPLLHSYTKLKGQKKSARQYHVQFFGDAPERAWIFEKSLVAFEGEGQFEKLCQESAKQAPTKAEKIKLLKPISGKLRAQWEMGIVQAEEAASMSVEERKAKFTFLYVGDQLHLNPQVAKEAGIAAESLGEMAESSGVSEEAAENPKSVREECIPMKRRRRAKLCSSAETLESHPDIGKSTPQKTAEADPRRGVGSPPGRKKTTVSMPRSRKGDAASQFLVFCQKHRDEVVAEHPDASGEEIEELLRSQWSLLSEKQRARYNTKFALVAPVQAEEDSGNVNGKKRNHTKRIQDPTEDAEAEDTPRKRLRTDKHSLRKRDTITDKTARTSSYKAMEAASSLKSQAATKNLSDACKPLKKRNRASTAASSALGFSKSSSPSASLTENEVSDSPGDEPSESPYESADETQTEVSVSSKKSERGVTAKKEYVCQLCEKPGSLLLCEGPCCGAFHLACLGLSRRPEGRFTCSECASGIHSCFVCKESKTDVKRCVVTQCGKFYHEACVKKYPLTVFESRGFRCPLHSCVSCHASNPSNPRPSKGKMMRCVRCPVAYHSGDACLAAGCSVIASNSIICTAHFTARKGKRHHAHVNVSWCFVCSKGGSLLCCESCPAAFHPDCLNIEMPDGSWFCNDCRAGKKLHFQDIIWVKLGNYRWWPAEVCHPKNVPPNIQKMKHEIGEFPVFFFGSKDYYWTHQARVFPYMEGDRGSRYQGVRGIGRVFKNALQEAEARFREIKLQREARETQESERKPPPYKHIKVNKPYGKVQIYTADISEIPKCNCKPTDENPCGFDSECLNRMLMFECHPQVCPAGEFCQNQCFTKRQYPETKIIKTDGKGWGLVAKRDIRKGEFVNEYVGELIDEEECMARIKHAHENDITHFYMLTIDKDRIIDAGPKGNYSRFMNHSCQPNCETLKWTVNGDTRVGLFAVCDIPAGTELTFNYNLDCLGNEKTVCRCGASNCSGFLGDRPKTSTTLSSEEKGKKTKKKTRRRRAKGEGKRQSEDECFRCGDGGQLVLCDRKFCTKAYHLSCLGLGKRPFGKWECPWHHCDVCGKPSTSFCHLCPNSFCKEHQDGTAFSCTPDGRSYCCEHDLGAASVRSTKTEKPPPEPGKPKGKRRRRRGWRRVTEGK

T1 sequence (Q9UBE0 whole entry): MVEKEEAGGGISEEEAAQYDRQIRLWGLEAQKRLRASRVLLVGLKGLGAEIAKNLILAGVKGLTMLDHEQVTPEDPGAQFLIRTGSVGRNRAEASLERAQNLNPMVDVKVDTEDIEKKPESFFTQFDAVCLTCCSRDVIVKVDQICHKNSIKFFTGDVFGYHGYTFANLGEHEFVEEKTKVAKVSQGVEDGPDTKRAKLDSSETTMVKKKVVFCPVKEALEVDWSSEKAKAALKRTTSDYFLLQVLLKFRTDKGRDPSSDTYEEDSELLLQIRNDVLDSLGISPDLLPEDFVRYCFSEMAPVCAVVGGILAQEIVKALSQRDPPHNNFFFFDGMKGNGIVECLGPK
T1 sequence (Q9UBT2 whole entry): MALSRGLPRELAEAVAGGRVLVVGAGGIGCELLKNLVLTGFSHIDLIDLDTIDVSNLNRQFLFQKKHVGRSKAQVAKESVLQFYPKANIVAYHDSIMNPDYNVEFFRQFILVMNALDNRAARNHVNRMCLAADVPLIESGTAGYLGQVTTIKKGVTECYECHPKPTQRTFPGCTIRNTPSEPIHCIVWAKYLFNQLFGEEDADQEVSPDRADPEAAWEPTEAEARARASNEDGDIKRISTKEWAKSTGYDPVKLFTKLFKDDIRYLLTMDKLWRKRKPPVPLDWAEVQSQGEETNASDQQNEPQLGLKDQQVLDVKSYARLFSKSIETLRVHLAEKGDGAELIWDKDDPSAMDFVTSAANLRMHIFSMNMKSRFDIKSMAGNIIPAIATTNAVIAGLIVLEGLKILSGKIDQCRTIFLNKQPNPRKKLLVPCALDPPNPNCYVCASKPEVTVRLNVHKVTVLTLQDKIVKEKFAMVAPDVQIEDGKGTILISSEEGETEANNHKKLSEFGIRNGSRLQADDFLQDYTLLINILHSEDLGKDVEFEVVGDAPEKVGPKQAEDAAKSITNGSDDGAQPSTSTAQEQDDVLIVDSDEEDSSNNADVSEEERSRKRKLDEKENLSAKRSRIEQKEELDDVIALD

With C=CCOc1c(Br)cc(/C=C2\SC(Nc3ccccc3)=NC2=O)cc1OC as the molecule, how does the IC50 [1] read?
Its IC50 is 29.9 µM (active).

What about the IC50 [2] of the same molecule?
The IC50 was 12 µM (active).

With CCOc1ccc(Br)cc1CSC(=N)N as the molecule, how does the IC50 [3] read?
The IC50 was > 300 µM (active).

With CN(C)c1ccc(NC(=O)Cn2sc3ccccc3c2=O)cc1 as the molecule, how does the IC50 [4] read?
The IC50 was 7.29 µM (active).

Which IC50 [5] does the source give for O=C(NCCc1ccccc1)Nc1ccc2nc(-c3ccco3)c(-c3ccco3)nc2c1 here?
Its IC50 is 0.472 µM (active).

Which EC50 [6] does the source give for O=C(O)c1ccc2nc(-c3ccco3)c(-c3ccco3)nc2c1 here?
Its EC50 is 19.5 µM (inconclusive).

And the EC50 [7]?
Its EC50 is 10.1 µM (active).

And the IC50 [8]?
Its IC50 is > 54 µM (active).

And the IC50 [9]?
Its IC50 is 20.9 µM (inactive).

And the IC50 [10]?
Its IC50 is 51 µM (active).

And the IC50 [11]?
The IC50 was > 66 µM (inactive).

And the IC50 [12]?
Its IC50 is 53.2 µM (inactive).

What about the IC50 [13] of the same molecule?
The IC50 was 159 µM (active).

And the AC50 [14]?
The AC50 was 10.8 µM (active).
